These compounds were tested on HBV viral production from HepAD38 cells (assay: Activity of test compounds on viral production from HepAD38 cells (viral load by qPCR of HBV core sequence in supernatant)). Conditions: Hepatitis B virus, 120 h, 5 days incubation, HBV DNA in supernatant by qPCR, top concentration 10 μM, read-out: Viral Load EC50 Activity range.
Format: cell-based
In short: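 HepAD38 cells, 50,000/well in tetracycline-free 2% FBS medium, treated 5 days at 37° C. with compound from 10 μM top concentration. HBV DNA in supernatant quantified by TaqMan qPCR of core sequence against DNA standards, relative to DMSO wells; CellTiter-Glo viability read in parallel. EC50/CC50 from four-parameter logistic fit.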

| SMILES | EC50 [nM] |
| --- | --- |
| CN1[C@H](C(=O)Nc2ccc(F)c(Cl)c2)C[C@H](c2ccc(C(=O)O)cc2)NS1(=O)=O [HBV-CSU-218-ISO-I, Cis-4-(5-((3-Chloro-4-fluorophenyl)carbamoyl)-6-methyl-1,1-dioxido-1,2,6-thiadiazinan-3-yl)benzoic acid] | > 5000 |
| O=C(Nc1ccc(F)c(Cl)c1)[C@@H]1C[C@H](c2nccs2)NS(=O)(=O)N1CCOCc1ccccc1 [HBV-CSU-095-ISO-II, Cis-2-(2-(benzyloxy)ethyl)-N-(3-chloro-4-fluorophenyl)-5-(thiazol-2-yl)-1,2,6-thiadiazinane-3-carboxamide 1,1-dioxide] | 1000 to 5000 |
| CN1[C@H](C(=O)Nc2ccc(F)c(Cl)c2)C[C@H](c2cc(-c3cncs3)cs2)NS1(=O)=O [HBV-CSU-286-ISO-I, Cis-N-(3-Chloro-4-fluorophenyl)-2-methyl-5-(4-(thiazol-5-yl)thiophen-2-yl)-1,2,6-thiadiazinane-3-carboxamide 1,1-dioxide] | < 1000 |
| COc1ccc(C2CC(C(=O)Nc3ccc(F)c(Cl)c3)N(C)S(=O)(=O)N2)cc1 (stereo not drawn) [HBV-CSU-200, Cis-N-(3-Chloro-4-fluorophenyl)-5-(4-methoxyphenyl)-2-methyl-1,2,6-thiadiazinane-3-carboxamide 1,1-dioxide] | < 1000 |
| [2H]C([2H])([2H])N1[C@@H](C(=O)Nc2ccc(F)c(Cl)c2)CC(c2ccc(-c3cn(C)cn3)s2)NS1(=O)=O (stereo in doubt) [HBV-CSU-373-ISO-II, Cis-N-(3-Chloro-4-fluorophenyl)-2-(methyl-d3)-5-(5-(1-methyl-1H-imidazol-4-yl)thiophen-2-yl)-1,2,6-thiadiazinane-3-carboxamide 1,1-dioxide] | < 1000 |
| CN1C(C(=O)Nc2ccc(F)c(Cl)c2)CC(c2ccc(-c3ccnn3C)s2)NS1(=O)=O (racemic) [HBV-CSU-271, Cis-N-(3-chloro-4-fluorophenyl)-2-methyl-5-(5-(1-methyl-1H-pyrazol-5-yl)thiophen-2-yl)-1,2,6-thiadiazinane-3-carboxamide 1,1-dioxide] | < 1000 |
| CCc1sc(C2CC(C(=O)Nc3ccc(F)c(Cl)c3)N(C)S(=O)(=O)N2)cc1-c1cnn(C)c1 (racemic) [HBV-CSU-305, Cis-N-(3-Chloro-4-fluorophenyl)-5-(5-ethyl-4-(1-methyl-1H-pyrazol-4-yl)thiophen-2-yl)-2-methyl-1,2,6-thiadiazinane-3-carboxamide 1,1-dioxide] | < 1000 |
| CN1C(C(=O)Nc2ccc(F)c(Cl)c2)CC(c2ccc(-c3cncn3C)s2)NS1(=O)=O (racemic) [HBV-CSU-267, Cis-N-(3-Chloro-4-fluorophenyl)-2-methyl-5-(5-(1-methyl-1H-imidazol-5-yl)thiophen-2-yl)-1,2,6-thiadiazinane-3-carboxamide 1,1-dioxide] | < 1000 |
| CS(=O)(=O)CCN1C(C(=O)Nc2ccc(F)c(Cl)c2)CC(c2nccs2)NS1(=O)=O (racemic) [HBV-CSU-073, Cis-N-(3-Chloro-4-fluorophenyl)-2-(2-(methylsulfonyl)ethyl)-5-(thiazol-2-yl)-1,2,6-thiadiazinane-3-carboxamide 1,1-dioxide] | > 5000 |
| CN1C(C(=O)Nc2ccc(Cl)c(F)c2)CC(c2cccs2)NS1(=O)=O (stereo not drawn) [HBV-CSU-018, Cis-N-(4-Chloro-3-fluorophenyl)-2-methyl-5-(thiophen-2-yl)-1,2,6-thiadiazinane-3-carboxamide 1,1-dioxide] | 1000 to 5000 |
| [2H]C1C([2H])(c2ccc(-c3cn(C([2H])([2H])[2H])cn3)s2)NS(=O)(=O)N(C([2H])([2H])[2H])C1([2H])C(=O)Nc1ccc(F)c(Cl)c1 (stereo not drawn) [HBV-CSU-378, Cis-N-(3-chloro-4-fluorophenyl)-2-(methyl-d3)-5-(5-(1-(methyl-d3)-1H-imidazol-4-yl)thiophen-2-yl)-1,2,6-thiadiazinane-3,4,5-d3-3-carboxamide 1,1-dioxide] | < 1000 |
| CN1[C@@H](C(=O)Nc2ccc(F)c(Cl)c2)C[C@@H](c2cc(-c3cn[nH]c3)cs2)NS1(=O)=O [HBV-CSU-245-ISO-II] | < 1000 |
